From US10494332B2, “Protein tyrosine phosphatases or SHP2 inhibitors and uses thereof” (Indiana University Research and Technology Corporation, priority 2015, dated 2019)
pIC50: −log10 of the molar value. Where “and” joins values, the source holds several entries; their conditions need not be identical. Identical values can stand only once. Like-named read-outs stand apart in the source and are kept apart here.

Experiments:
[1] = molecular target: T1, STEP (Homo sapiens, UniProt P54829); experiment: PTP inhibition assay (pNPP); type: biochemical; conditions: pNPP at Km, pH 7.0, 25° C.
T1 sequence (P54829 1-565): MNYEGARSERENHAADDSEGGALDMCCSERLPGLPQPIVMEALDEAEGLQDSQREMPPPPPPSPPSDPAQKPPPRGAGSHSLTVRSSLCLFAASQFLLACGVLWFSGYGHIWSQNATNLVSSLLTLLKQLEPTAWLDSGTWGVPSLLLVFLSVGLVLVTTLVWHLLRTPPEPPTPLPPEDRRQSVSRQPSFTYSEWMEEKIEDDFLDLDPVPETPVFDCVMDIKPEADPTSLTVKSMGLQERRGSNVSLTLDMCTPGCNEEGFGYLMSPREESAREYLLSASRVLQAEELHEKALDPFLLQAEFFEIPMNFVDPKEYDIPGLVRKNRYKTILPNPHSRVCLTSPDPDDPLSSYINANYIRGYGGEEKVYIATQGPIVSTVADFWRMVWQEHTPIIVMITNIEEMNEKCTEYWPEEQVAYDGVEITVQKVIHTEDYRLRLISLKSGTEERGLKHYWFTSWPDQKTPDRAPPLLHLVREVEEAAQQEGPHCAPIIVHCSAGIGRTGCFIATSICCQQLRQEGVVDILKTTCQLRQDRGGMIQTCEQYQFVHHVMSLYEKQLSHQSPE

[2] = molecular target: PTPε (Homo sapiens, UniProt P23469); experiment: PTP inhibition assay (pNPP); type: biochemical
[3] = molecular target: T2, HePTP (Homo sapiens, UniProt P35236); experiment: PTP inhibition assay (pNPP); type: biochemical; conditions: pNPP at Km, pH 7.0, 25° C.
T2 sequence (P35236 1-360): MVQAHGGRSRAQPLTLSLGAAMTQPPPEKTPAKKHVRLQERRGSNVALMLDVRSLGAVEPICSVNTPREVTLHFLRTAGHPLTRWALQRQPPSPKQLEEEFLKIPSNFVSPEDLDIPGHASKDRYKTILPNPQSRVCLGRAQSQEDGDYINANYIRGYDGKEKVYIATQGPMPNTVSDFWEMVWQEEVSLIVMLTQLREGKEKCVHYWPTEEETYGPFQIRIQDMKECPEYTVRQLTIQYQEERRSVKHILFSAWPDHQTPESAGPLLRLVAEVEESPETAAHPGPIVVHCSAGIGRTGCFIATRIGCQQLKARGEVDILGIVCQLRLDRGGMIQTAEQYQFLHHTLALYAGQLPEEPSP

[4] = molecular target: VHR (Homo sapiens, UniProt P51452); experiment: PTP inhibition assay (pNPP); type: biochemical; conditions: pNPP at Km, pH 7.0, 25° C.
[5] = molecular target: T3, Meg2 (Homo sapiens, UniProt P43378); experiment: PTP inhibition assay (pNPP); type: biochemical
T3 sequence (P43378 1-593): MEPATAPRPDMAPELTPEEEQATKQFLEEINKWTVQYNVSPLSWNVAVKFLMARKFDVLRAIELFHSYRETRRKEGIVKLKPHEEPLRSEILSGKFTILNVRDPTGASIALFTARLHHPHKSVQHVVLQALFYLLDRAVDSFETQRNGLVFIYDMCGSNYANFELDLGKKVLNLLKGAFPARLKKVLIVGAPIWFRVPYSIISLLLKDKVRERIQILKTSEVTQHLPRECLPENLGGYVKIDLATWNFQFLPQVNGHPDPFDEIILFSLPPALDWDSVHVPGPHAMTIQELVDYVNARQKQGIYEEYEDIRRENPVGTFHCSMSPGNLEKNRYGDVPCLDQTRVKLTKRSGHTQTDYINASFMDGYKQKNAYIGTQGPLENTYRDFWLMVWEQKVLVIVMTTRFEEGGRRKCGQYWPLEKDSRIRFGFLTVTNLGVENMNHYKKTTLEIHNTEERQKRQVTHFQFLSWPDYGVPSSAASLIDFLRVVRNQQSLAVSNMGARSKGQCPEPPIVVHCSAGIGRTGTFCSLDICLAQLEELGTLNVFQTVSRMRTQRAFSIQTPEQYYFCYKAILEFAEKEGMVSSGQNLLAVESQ

[6] = molecular target: T4, CDC14A (Homo sapiens, UniProt Q9UNH5); experiment: PTP inhibition assay (pNPP); type: biochemical
T4 sequence (Q9UNH5 1-594): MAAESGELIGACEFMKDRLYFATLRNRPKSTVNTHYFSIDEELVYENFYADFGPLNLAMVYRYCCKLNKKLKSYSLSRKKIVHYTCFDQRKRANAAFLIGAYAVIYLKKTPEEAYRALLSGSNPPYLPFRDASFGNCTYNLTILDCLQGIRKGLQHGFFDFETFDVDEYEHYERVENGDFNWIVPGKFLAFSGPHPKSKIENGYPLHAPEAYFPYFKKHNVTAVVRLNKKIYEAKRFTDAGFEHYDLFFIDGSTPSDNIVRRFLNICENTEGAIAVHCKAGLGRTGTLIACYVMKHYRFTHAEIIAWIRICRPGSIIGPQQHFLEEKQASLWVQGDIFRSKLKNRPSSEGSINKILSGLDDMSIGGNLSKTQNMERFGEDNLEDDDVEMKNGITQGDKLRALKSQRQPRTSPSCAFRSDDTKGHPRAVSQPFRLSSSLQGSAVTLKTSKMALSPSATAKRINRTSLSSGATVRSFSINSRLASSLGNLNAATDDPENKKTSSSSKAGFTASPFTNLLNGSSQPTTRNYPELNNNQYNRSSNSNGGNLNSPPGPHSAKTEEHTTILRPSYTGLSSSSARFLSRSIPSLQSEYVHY

[7] = molecular target: YopH (Yersinia enterocolitica, UniProt P15273); experiment: biochemical
[8] = molecular target: T5, mPTPB (Mycobacterium tuberculosis, UniProt I6WXK4); experiment: biochemical; conditions: for pIC50: IC50 mPTPB
T5 sequence (I6WXK4 1-276): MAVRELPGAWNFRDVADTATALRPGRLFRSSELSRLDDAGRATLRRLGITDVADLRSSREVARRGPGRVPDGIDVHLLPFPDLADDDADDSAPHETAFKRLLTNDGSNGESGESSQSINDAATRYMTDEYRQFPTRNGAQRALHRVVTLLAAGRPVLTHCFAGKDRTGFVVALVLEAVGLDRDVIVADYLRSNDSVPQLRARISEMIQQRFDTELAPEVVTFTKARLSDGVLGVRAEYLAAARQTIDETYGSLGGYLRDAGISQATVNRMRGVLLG

[9] = molecular target: TbPTP1 (Trypanosoma brucei brucei, UniProt Q38AT7); experiment: PTP inhibition assay (pNPP); type: biochemical; conditions: pH 7.0, 25° C.
[10] = molecular target: PTPσ (Homo sapiens, UniProt Q13332); experiment: PTP inhibition assay (pNPP); type: biochemical; conditions: read-out: IC50 PTPσ
[11] = pNPP at Km, read-out: IC50 TbPTP1

Chain of YopH (P15273 whole entry, looked up): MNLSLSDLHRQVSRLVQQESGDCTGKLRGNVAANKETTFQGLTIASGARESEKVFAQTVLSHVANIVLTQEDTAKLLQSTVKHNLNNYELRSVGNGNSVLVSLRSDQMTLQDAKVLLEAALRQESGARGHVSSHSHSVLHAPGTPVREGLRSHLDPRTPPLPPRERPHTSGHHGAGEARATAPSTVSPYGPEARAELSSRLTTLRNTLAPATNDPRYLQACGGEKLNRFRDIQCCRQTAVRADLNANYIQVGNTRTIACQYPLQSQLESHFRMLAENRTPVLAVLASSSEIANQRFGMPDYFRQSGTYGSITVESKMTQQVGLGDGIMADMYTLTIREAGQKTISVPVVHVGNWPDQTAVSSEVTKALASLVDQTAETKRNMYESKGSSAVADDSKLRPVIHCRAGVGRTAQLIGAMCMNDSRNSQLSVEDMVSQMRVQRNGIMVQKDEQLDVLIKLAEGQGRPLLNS
Chain of PTPε (P23469 20-700): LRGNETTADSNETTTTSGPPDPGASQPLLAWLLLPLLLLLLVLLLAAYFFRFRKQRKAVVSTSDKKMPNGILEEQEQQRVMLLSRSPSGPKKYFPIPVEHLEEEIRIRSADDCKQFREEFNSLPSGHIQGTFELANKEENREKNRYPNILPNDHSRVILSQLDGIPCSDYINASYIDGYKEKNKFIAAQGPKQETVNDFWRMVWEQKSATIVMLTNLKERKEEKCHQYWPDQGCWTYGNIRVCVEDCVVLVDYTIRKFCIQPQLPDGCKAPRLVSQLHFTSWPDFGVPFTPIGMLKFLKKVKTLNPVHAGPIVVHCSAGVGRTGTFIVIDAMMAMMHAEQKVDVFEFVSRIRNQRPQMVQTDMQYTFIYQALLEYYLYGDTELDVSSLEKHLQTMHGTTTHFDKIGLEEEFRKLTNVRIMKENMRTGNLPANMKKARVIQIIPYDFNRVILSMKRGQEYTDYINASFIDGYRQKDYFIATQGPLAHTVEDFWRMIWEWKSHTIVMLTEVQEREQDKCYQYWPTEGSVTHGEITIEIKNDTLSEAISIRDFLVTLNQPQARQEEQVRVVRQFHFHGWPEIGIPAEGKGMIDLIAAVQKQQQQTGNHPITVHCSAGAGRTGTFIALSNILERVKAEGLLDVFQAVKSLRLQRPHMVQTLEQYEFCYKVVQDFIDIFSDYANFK
Chain of VHR (P51452 whole entry): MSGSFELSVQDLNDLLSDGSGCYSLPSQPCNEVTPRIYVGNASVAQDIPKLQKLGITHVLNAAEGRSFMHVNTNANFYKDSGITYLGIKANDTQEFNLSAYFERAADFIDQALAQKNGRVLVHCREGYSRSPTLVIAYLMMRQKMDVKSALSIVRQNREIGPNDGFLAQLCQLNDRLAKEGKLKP
Chain of TbPTP1 (Q38AT7 entry or part of it): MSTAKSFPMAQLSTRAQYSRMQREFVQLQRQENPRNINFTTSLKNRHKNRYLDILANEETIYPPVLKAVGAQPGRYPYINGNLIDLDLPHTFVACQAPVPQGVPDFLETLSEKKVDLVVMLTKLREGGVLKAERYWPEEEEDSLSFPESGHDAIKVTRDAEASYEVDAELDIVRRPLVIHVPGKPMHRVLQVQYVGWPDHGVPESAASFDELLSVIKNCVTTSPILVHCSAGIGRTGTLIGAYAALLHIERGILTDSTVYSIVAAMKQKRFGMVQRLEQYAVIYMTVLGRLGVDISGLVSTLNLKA
Chain of PTPσ (Q13332 30-1948): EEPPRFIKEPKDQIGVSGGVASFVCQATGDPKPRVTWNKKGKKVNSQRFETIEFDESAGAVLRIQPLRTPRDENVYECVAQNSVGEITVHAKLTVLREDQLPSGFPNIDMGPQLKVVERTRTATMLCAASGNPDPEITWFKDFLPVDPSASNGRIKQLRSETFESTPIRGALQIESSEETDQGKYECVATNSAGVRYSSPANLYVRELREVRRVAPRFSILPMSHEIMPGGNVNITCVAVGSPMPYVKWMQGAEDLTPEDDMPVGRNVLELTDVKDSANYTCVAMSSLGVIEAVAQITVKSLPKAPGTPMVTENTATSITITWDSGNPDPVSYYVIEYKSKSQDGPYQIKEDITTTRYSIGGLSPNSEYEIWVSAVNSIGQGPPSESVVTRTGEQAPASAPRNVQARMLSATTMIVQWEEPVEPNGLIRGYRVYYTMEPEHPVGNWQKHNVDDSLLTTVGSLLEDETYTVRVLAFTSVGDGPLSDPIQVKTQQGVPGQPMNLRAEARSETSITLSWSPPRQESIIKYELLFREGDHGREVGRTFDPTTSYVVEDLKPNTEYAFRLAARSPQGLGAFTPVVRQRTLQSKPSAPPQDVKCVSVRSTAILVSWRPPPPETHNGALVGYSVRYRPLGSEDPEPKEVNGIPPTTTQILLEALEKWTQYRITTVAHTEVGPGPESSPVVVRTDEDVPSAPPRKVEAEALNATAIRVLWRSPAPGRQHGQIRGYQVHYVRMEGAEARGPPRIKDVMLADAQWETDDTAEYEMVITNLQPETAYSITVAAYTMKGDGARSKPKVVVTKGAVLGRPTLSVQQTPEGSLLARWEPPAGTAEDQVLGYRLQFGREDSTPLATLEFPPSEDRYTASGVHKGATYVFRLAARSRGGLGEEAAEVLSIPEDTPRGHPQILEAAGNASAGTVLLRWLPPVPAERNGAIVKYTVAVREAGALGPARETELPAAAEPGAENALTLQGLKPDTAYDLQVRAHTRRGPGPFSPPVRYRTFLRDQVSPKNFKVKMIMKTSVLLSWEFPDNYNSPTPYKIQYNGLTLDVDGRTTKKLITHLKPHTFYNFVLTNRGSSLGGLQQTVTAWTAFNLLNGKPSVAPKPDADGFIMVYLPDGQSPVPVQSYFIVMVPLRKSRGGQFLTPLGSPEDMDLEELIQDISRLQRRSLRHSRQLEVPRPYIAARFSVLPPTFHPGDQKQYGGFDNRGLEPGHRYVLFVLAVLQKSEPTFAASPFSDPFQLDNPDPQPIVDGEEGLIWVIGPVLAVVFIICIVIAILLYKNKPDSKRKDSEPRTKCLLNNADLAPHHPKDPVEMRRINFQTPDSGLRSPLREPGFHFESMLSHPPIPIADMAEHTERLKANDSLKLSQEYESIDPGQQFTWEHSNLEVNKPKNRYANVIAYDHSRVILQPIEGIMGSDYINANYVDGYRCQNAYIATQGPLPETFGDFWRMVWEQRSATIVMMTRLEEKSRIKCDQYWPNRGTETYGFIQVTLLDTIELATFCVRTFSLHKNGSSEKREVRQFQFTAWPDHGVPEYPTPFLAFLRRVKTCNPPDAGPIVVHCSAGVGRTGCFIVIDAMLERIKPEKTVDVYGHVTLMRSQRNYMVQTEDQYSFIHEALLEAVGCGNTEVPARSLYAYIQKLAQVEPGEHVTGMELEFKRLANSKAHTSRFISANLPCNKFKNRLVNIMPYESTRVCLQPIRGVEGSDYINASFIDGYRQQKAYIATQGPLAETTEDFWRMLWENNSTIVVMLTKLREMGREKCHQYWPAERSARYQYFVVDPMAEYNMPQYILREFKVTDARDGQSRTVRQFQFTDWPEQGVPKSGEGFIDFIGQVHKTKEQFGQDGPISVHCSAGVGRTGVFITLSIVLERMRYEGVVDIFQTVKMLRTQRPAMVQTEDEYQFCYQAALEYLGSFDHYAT

Structure (SMILES)	pIC50 ([1]; IC50 STEP)	pIC50 [2]	pIC50 [3]	pIC50 [4]	pIC50 [5]	pIC50 [6]	pIC50 [7]	IC50 ([8]; Biochemical potency against target (Ic50, nM) mPTPB)	pIC50 [8]	pIC50 [9, 11]	pIC50 ([1]; read-out: IC50 STEP)	pIC50 [10]	pIC50 ([9]; IC50 TbPTP1, pNPP at Km)
Cc1c(Br)cc(NC(=O)CS(=O)(=O)O)cc1Br	< 4.00	< 4.00	< 4.00	< 4.00	< 4.00	< 4.00	< 4.00	> 3200 nM	5.51	< 4.00			
O=C(CS(=O)(=O)O)Nc1ccc2nc(C(F)(F)F)[nH]c2c1		< 4.00	< 4.00	< 4.00	< 4.00	< 4.00	< 4.00			< 4.00	< 4.00	< 4.00	
O=C(CS(=O)(=O)O)Nc1cnc2ccccc2c1		< 4.00	< 4.00	< 4.00	< 4.00	< 4.00	< 4.00		4.26	< 4.00	< 4.00	< 4.00	
O=C(NCCNC(=O)C(c1ccccc1)S(=O)(=O)O)c1cccc(C(=O)c2ccccc2)c1 (centres unmarked) [Compound L319-02-A60]			< 3.70	< 3.70						< 3.70	< 3.70		
O=C(NCc1ccc(NC(=O)C(c2ccccc2)S(=O)(=O)O)cc1)c1ccccc1-c1ccc(C(F)(F)F)cc1 (centres unmarked) [Compound L319-05-A64]			3.82							4.03	< 4.00		
CCCCc1ccc(NC(=O)C(=O)Nc2ccccc2NC(=O)C(c2ccccc2)S(=O)(=O)O)cc1 (centres unmarked) [Compound L319-21-M06]			< 4.30	< 4.30						< 4.30	< 4.30		
O=C(Nc1cccc(OCc2ccccc2)c1)C(=O)Nc1ccccc1NC(=O)C(c1ccccc1)S(=O)(=O)O (centres unmarked) [Compound L319-21-M52]			< 4.30	< 4.30						< 4.30	< 4.30		
Cc1c(Br)cc(NC(=O)C(c2ccccc2)S(=O)(=O)O)cc1Br (centres unmarked) [Compound L319M34]	< 3.70		< 4.00				< 3.70		6.70 to 7.30 and 7.26				< 3.70
O=C(Nc1ccc(OCc2ccccc2)c(Cl)c1)C(c1ccccc1)S(=O)(=O)O (centres unmarked) [Compound L319M50]			< 4.00	< 3.70						< 4.00	< 3.70		
